The source of these data is patent publication US20030109582A1, “Methods and compositions for stimulating secretions from paneth cells” (priority 2001, published 2003).

For test [1], the system named is fecal Lactobacilli. In words: population density of viable Lactobacilli in stools of individuals with Crohn's disease. Type of test: in vivo, human. As to conditions: after 1 week of L-isoleucine administration (dosed as in Example 2) added to low-residual formula diet; 9 hospitalized Crohn's disease individuals. How it is done:
The population density of viable Lactobacilli in the stools of a group of 9 hospitalized individuals with Crohn's disease was measured before and after a course of L-isoleucine administration. Subjects in this group had been supported nutritionally exclusively by total parenteral nutrition (TPN) for more than one month. One week after a low-residual formula diet was introduced, L-isoleucine was added to the diet (dosed as in Example 2) during the fmal week of hospitalization. Yogurt and other fermented products were restricted as were antibiotics.

Test [2] has as its system Crohn's disease patients. In words: L-isoleucine administration to Crohn's disease patients (CDAI, abdominal symptoms). The format is in vivo, human. To be noted: Four grams/day oral, 4 weeks. How it is done:
L-isoleucine was administered to nine volunteer Crohn's disease patients with mild abdominal symptoms. Four grams/day of powdered L-isoleucine divided into two doses was orally administered for 4 weeks. The CDAI (Crohn's disease activity index—Best W, Beckel J, Singleton J, Kern F J, Development of a Crohn's Disease Activity Index: National Cooperative Crohn's Disease Study. Gastroenterology 1976; 70:439-44) was calculated at the beginning and following the fourth week of the L-isoleucine administration period. All medication regiments were fixed throughout the study period.

The test system of test [3] is Human Paneth cells (isolated intact human crypts from ileum); secretions tested on Salmonella typhimurium phoP-. Description: human Paneth cell secretion assay (bactericidal activity of crypt secretions). Type of test: cell-based. As to conditions: for % Bacterial Cell Killing: S. typhimurium. From the text:
An assay was developed utilizing Human Paneth cells, obtained from biopsy material. Substances were screened in vitro, by exposing the isolated human tissue material briefly, and assessing the release of antibiotic activity.
A human Paneth cell secretion assay was developed using isolated intact human crypts from ileum obtained after bowel surgery, following published techniques. About 700 isolated crypts obtained by disruption with EDTA, as estimated using a hemocytometer, were transferred into microfuge tubes. Crypts were then incubated in minimal essential media containing non-essential amino acids, with or without various substances (such as isoleucine) in a total volume of 0.5 ml for 30 min or 1 hour at 37° C. After incubation the tissue suspension was spum, and the supernatants collected 10 microliter aliquots were then mixed with either 500 or 1000 colony forming units (cfu) of Salmonella typhimurium phoP- and incubated for 1 hour at 37° C. Surviving bacteria were quantitated by plating on nutrient agar. Bactericidal assays were conducted in triplicate. Data were expressed as the percent bacteria killed under experimental conditions relative to those recovered from controls.

For `CC[C@H](C)[C@H](N)C(=O)O` [isoleucine, L(+)isoleucine], in test [1], the “mean concentration of fecal Lactobacilli” value is given as “significantly increased”. The frequency of diarrhea entry in test [2] (Crohn's disease patients) is “gradually decreased”. For the same molecule, the stool consistency result in test [2] (Crohn's disease patients) was “improved”. In addition, the “mean CDAI at fourth week” value in test [2] (two doses, nine Crohn's disease patients, mean CDAI at beginning 120) was found to be 90. The “Bactericidal activity in secretions against S. typhimurium” value in test [3] (crypts exposed to 250 microgram/ml for 1 hour) is “detected”. Moreover, the “% Bacterial Cell Killing” value in test [3] (crypts exposed to L(+)isoleucine 250 microgram/ml for 1 hour, relative to controls) is 63.7%; in test [3] (isoleucine 5 μg/ml, 30 minutes), 4.1%; in test [3] (isoleucine 50 μg/ml, 30 minutes), 22.5%; in test [3] (isoleucine 500 μg/ml, 30 minutes) it was 51.7%. Moreover, in test [3] (crypts exposed to L(+)isoleucine 250 microgram/ml for 1 hour, supernatant incubated with S. typhimurium 1 hour), the “Surviving Bacteria” value is given as 140 ± 23. In addition, in test [3] (human Paneth cells, Salmonella typhimurium killing), the “isoleucine-induced secretion effect, dose dependence” value is “dose dependent”.
